One assay deals with T1, Human M4 (Homo sapiens, UniProt P08173).
T1 construct: expressed in transfected cells; host or cells: CHO-K1 (ATCC), stably expressing M4 and Gqi5
T1 sequence (P08173 1-479): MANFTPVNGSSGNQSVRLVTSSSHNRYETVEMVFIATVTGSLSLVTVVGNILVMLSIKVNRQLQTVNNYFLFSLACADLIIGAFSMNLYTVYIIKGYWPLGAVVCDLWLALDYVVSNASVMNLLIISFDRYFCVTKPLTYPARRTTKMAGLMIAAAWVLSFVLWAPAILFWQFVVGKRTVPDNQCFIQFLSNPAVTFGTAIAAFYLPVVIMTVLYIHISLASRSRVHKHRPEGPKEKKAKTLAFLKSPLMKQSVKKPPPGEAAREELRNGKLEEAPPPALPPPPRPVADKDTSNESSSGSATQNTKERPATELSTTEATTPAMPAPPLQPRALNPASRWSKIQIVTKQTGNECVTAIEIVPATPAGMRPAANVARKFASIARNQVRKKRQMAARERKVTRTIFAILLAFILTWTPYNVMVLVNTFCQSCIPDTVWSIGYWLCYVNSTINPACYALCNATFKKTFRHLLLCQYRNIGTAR
As to the kind of experiment: mAChR M4 cell-based functional calcium flux assay (human M4/Gqi5/CHO cells). The conditions noted are these: for Emin (human M4): % ACh maximum at 30 μM; for IC50: decrease of the response to an EC80 concentration of acetylcholine. Here is the method: (§1) Human, rat, or mouse M4. cDNA, along with the chimeric G protein Gqi5, were transfected into Chinese hamster ovary (CHO-K1) cells purchased from the American Type Culture Collection using Lipofectamine2000. M4/Gqi5/CHO cells were grown in Ham's F-12 medium containing 10% heat-inactivated fetal bovine serum (FBS), 20 mM HEPES, 500 μg/mL G418 sulfate, and 200 μg/mL Hygromycin B.
(§2) For high throughput measurement of agonist-evoked increases in intracellular calcium, CHO-K1 cells stably expressing muscarinic receptors were plated in growth medium lacking G418 and hygromycin at 15,000 cells/20 μL/well in Greiner 384-well black-walled, tissue culture (TC)-treated, clear-bottom plates (VWR). Cells were incubated overnight at 37° C. and 5% CO2. The next day, cells were washed using an ELX 405 (BioTek) with assay buffer; the final volume was then aspirated to 20 μL. Next, 20 μL of a 2.3 μM stock of Fluo-4/acetoxymethyl ester (Invitrogen, Carlsbad, CA), prepared as a 2.3 mM stock in DMSO and mixed in a 1:1 ratio with 10% (w/v) Pluronic F-127 and diluted in assay buffer, was added to the wells and the cell plates were incubated for 50 min at 37° C. and 5% CO2. Dye was removed by washing with the ELX 405 and the final volume was aspirated to 20 μL. Compound master plates were formatted in a 10 point concentration-response curve (CRC) format (1:3 dilutions) in 100% DMSO with a starting concentration of 10 or 1 mM using a BRAVO liquid handler (Agilent). Test compound CRCs were then transferred to daughter plates (240 nL) using the Echo acoustic plate reformatter (Labcyte, Sunnyvale, CA) and then diluted into assay buffer (40 μL) to a 2× stock using a Thermo Fisher Combi (Thermo Fisher Scientific, Waltham, MA).
(§3) Calcium flux was measured using the Functional Drug Screening System (FDSS) 6000 or 7000 (Hamamatsu Corporation, Tokyo, Japan) as an increase in the fluorescent static ratio. Compounds were applied to cells (20 μL, 2×) using the automated system of the FDSS at 2 seconds into the protocol and the data were collected at 1 Hz. At 143 s, 10 μL of an EC20 concentration of the muscarinic receptor agonist acetylcholine was added (5×), followed by the addition of 12 μL of an EC80 concentration of acetylcholine at the 268 s time point (5×). Agonist activity was analyzed as a concentration-dependent increase in calcium mobilization upon compound addition. Positive allosteric modulator activity was analyzed as a concentration-dependent increase in the EC20 acetylcholine response. Antagonist activity was analyzed as a concentration-dependent decrease in the EC80 acetylcholine response; for the purposes of the tables herein, an IC50 (inhibitory concentration 50) was calculated as a concentration-dependent decrease of the response elicited by an EC80 concentration of acetylcholine. Concentration-response curves were generated using a four-parameter logistical equation in XLFit curve fitting software (IDBS, Bridgewater, NJ) for Excel (Microsoft, Redmond, WA) or Prism (GraphPad Software, Inc., San Diego, CA) or the Dotmatics software platform (Dotmatics, Bishop's Stortford, UK).
(§4) Compounds were synthesized as described above. Activity (IC50 and Emin) was determined in the mAChR M4 cell-based functional assay as described above and the data are shown in Table 2 and Table 3. The compound number corresponds to the compound numbers used in the examples and Tables 1 and 1.1.
Background: Calcium flux is commonly read through the fluorescence of an indicator in the cells.

A further assay deals with T2, Rat M4 (Rattus norvegicus, UniProt P08485).
T2 construct: expressed in transfected cells; host or cells: CHO-K1 (ATCC), stably expressing M4 and Gqi5
T2 sequence (P08485 1-478): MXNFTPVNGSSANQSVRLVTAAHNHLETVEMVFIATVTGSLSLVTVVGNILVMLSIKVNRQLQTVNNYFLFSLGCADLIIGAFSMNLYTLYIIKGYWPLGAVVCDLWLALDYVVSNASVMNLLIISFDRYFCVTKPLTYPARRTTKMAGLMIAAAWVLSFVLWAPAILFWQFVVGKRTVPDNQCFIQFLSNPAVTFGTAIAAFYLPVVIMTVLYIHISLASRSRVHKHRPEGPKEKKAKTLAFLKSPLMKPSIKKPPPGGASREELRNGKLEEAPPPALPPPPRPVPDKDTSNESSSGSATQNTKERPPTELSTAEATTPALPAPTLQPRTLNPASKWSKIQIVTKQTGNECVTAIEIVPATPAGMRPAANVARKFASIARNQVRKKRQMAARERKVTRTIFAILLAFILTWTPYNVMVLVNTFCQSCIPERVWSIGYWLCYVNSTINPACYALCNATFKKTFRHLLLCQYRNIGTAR
Put plainly: mAChR M4 cell-based functional calcium flux assay (rat M4/Gqi5/CHO cells). As to conditions: for Emin (rat M4): % ACh maximum at 30 μM. Here is the method:
as §1, §2, §3, §4

Where [1] appears, read: decrease of the response to an EC80 concentration of acetylcholine.

As usually defined, the IC50 is the concentration that gives 50% inhibition. Consider `CC(=O)Nc1ccc(-c2ccc(NC[C@@H]3CC34CCN(CC3CCOCC3)CC4)nn2)cc1` [Compound 121, N-[4-[6-[[(2R)-6-(tetrahydropyran-4-ylmethyl)-6-azaspiro[2.5]octan-2-yl]methylamino]pyridazin-3-yl]phenyl]acetamide], for which the “Emin (human M4)” value on Human M4 is reported as 3%. The values for the half-inhibitory concentration (IC50) on Human M4 and on Rat M4 (setting [1]) were 68.2 nM and 0.0437 µM, respectively. Further, the “Emin (rat M4)” value on Rat M4 was determined as 9%.
For `Cc1cnn(C)c1-c1ccc(NC(=O)C2CC23CCN(CCC(C)(C)C)CC3)nn1` (centres unmarked) [Compound 5, N-(6-(1,4-dimethyl-1H-pyrazol-5-yl)pyridazin-3-yl)-6-(3,3-dimethylbutyl)-6-azaspiro[2.5]octane-1-carboxamide], at Human M4, the “Emin (human M4)” value came out at 5.53% and the IC50 worked out at 1680 nM. Further, on Rat M4, the “Emin (rat M4)” value stood at 18.7%. Also, the IC50 on Rat M4 (setting [1]) was determined as 5.72 µM.
The matching figures for `CC(C)(C)CCN1CCC2(CC1)CC2CNc1ccc(-c2ccc(F)cc2F)nn1` (centres unmarked) [Compound 28, 6-(2,4-difluorophenyl)-N-[[6-(3,3-dimethylbutyl)-6-azaspiro[2.5]octan-2-yl]methyl]pyridazin-3-amine]: 2.74%, 55.7 nM, 2.59% and 0.261 µM.
For the compound `Fc1ccc(Cl)c(-c2ccc(NCC3CC34CCN(Cc3ncccc3C(F)(F)F)CC4)nn2)c1` (centres unmarked) [Compound 1, 6-(2-chloro-5-fluorophenyl)-N-((6-((3-(trifluoromethyl)pyridin-2-yl)methyl)-6-azaspiro[2.5]octan-1-yl)methyl)pyridazin-3-amine], at Human M4, the “Emin (human M4)” value was determined as 2.74% and the IC50 stood at 74.6 nM. Moreover, the “Emin (rat M4)” value on Rat M4 is 2.75%. Further, at Rat M4 (setting [1]), the IC50 is 1.15 µM.
As to `Cc1cnn(C)c1-c1ccc(N(C)CC2CC23CCN(CCC(C)(C)C)CC3)nn1` (centres unmarked) [Compound 76, 6-(1,4-dimethyl-1H-pyrazol-5-yl)-N-((6-(3,3-dimethylbutyl)-6-azaspiro[2.5]octan-1-yl)methyl)-N-methylpyridazin-3-amine], on Human M4, the “Emin (human M4)” value is 4% and the half-maximal inhibitory concentration (IC50) was determined as 99.6 nM. Further, the “Emin (rat M4)” value at Rat M4 was determined as 7%. At Rat M4 (setting [1]), the half-inhibitory concentration (IC50) worked out at 0.693 µM.
For the compound `Cc1nn(C)cc1-c1nnc(NCC2CC23CCN(CC24CC5CC(CC(C5)C2)C4)CC3)c2ccccc12` (centres unmarked) [Compound 89, N-[[6-(1-adamantylmethyl)-6-azaspiro[2.5]octan-2-yl]methyl]-4-(1,3-dimethylpyrazol-4-yl)phthalazin-1-amine], at Human M4, the “Emin (human M4)” value worked out at 3% and the IC50 was 170 nM. In addition, the “Emin (rat M4)” value at Rat M4 came to 4%. In addition, at Rat M4 (setting [1]), the 50% inhibitory concentration (IC50) was determined as 0.35 µM.
Take `COc1ccc(F)cc1-c1ccc(NCC2CC23CCN(CCC(C)(C)C)CC3)nn1` (centres unmarked) [Compound 31, N-[[6-(3,3-dimethylbutyl)-6-azaspiro[2.5]octan-2-yl]methyl]-6-(5-fluoro-2-methoxy-phenyl)pyridazin-3-amine]: on Human M4, the “Emin (human M4)” value stood at 3.03% and the IC50 turned out to be 22.1 nM. In addition, the “Emin (rat M4)” value at Rat M4 turned out to be 2.87%. Also, the IC50 at Rat M4 (setting [1]) amounted to 0.0688 µM.
Turning to `Cc1nn(C)cc1-c1ccc(NCC2CC23CCN(Cc2ccccc2)CC3)nn1` (centres unmarked) [Compound 58, N-[(6-benzyl-6-azaspiro[2.5]octan-2-yl)methyl]-6-(1,3-dimethylpyrazol-4-yl)pyridazin-3-amine], at Human M4, the “Emin (human M4)” value worked out at 4.18% and the IC50 was 384 nM. In addition, the “Emin (rat M4)” value at Rat M4 is recorded as 11.8%. Further, on Rat M4 (setting [1]), the IC50 was determined as 3.6 µM.
Consider `CC(C)(C)CCN1CCC2(CC1)CC2CNc1ccc(-c2ccc3ccccc3c2)nn1` (centres unmarked) [Compound 47, N-[[6-(3,3-dimethylbutyl)-6-azaspiro[2.5]octan-2-yl]methyl]-6-(2-naphthyl)pyridazin-3-amine], for which, at Human M4, the “Emin (human M4)” value was 2.97% and the IC50 was 208 nM. Besides, the “Emin (rat M4)” value on Rat M4 is 2.90%. In addition, the concentration for half-maximal inhibition (IC50) on Rat M4 (setting [1]) stood at 0.39 µM.
On to `CC(C)(C)CCN1CCC2(CC1)CC2CNc1ccc(-c2ccccc2)nn1` (centres unmarked) [Compound 34, N-[[6-(3,3-dimethylbutyl)-6-azaspiro[2.5]octan-2-yl]methyl]-6-phenyl-pyridazin-3-amine], for which, at Human M4, the “Emin (human M4)” value turned out to be 2.24% and the IC50 came to 17.8 nM. Further, the “Emin (rat M4)” value on Rat M4 was found to be 2.88%. In addition, the half-maximal inhibitory concentration (IC50) at Rat M4 (setting [1]) came out at 0.0862 µM.
Turning to `CCCN1CCC2(CC1)CC2CNc1ccc(-c2cn(C)nc2C)nn1` (centres unmarked) [Compound 54, 6-(1,3-dimethylpyrazol-4-yl)-N-[(6-propyl-6-azaspiro[2.5]octan-2-yl)methyl]pyridazin-3-amine], at Human M4, the “Emin (human M4)” value came out at 19.4% and the IC50 was 4690 nM. In addition, on Rat M4, the “Emin (rat M4)” value came out at 53.6%. The IC50 on Rat M4 (setting [1]) was 9.49 µM.
The corresponding values for `Cc1nn(C)cc1-c1cnc(NCC2CC23CCN(CCC(C)(C)C)CC3)cn1` (centres unmarked) [Compound 23, N-[[6-(3,3-dimethylbutyl)-6-azaspiro[2.5]octan-2-yl]methyl]-5-(1,3-dimethylpyrazol-4-yl)pyrazin-2-amine] are 2.71%, 64.7 nM, 4.71% and 0.278 µM.
`CC(=O)Nc1ccc(-c2ccc(NCC3CC34CCN(CCC(C)(C)C)CC4)nn2)cc1` (centres unmarked) [Compound 40, N-[4-[6-[[[6-(3,3-dimethylbutyl)-6-azaspiro[2.5]octan-2-yl]methyl]amino]pyridazin-3-yl]phenyl]acetamide]: on Human M4, the “Emin (human M4)” value is listed as 2.97% and the IC50 is 4.56 nM. Besides, the “Emin (rat M4)” value on Rat M4 came out at 3.40%. In addition, the IC50 at Rat M4 (setting [1]) came out at 0.0173 µM.
Regarding `Cc1cnn(C)c1-c1ccc(NC(=O)C2CC23CCN(CC(C)C(C)(C)C)CC3)nn1` (centres unmarked) [Compound 7, N-[6-(2,4-dimethylpyrazol-3-yl)pyridazin-3-yl]-6-(2,3,3-trimethylbutyl)-6-azaspiro[2.5]octane-2-carboxamide], the “Emin (human M4)” value on Human M4 worked out at 6.29%. The IC50 on Human M4 was 2240 nM; on Rat M4 (cells printed in μM, decrease of the EC80 acetylcholine response) it was more than 10 µM. Moreover, the “Emin (rat M4)” value at Rat M4 is 22.7%.

The record behind these values is patent US12600726B2, “Antagonists of the muscarinic acetylcholine receptor M4” (Vanderbilt University, priority 2017, dated 2026).
